Experimental data: patent US9302999B2, “Substituted triazoles as herbicides” (E. I. DU PONT DE NEMOURS AND COMPANY, priority 2012, dated 2016)

Experiments:
Type in all cases: in vivo
[1] = test system: poinsettia, wild (wild poinsettia, Euphorbia heterophylla); assay: Test E pre-/postemergence: poinsettia, wild; settings: scale 0 to 100
Text: (§1) Seeds of plant species selected from corn (Zea mays), soybean (Glycine max), velvetleaf (Abutilon theophrasti), lambsquarters (Chenopodium album), poinsettia, wild (wild poinsettia, Euphorbia heterophylla), pigweed, palmer (palmer pigweed, Amaranthus palmeri), waterhemp (common waterhemp, Amaranthus rudis), smartweed (ladysthumb smartweed, Polygonum persicaria), surinam grass (Brachiaria decumbens), crabgrass, large (large crabgrass, Digitaria sanguinalis), crabgrass, Brazil (Brazilian crabgrass, Digitaria horizontalis), panicum, fall (fall panicum, Panicum dichotomiflorum), foxtail, giant (giant foxtail, Setaria faberii), foxtail, green (green foxtail, Setaria viridis), goosegrass (Eleusine indica), johnsongrass (Sorghum halepense), ragweed (common ragweed, Ambrosia elation), barnyardgrass (Echinochloa crus-galli), sandbur (southern sandbur, Cenchrus echinatus), arrowleaf sida (Sida rhombifolia), ryegrass, Italian (Italian ryegrass, Lolium multiflorum), dayflower, (VA) (Virginia dayflower, Commelina virginica), field bindweed (Convolvulus arvensis), cocklebur (common cocklebur, Xanthium strumarium), morningglory (Ipomoea coccinea), nightshade (eastern black nightshade, Solanum ptycanthum), kochia (Kochia scoparia), nutsedge, yellow (yellow nutsedge, Cyperus esculentus) and beggarticks (hairy beggarticks, Bidens pilosa) were planted into a silt loam soil and treated preemergence with test chemicals formulated in a non-phytotoxic solvent mixture which included a surfactant. At the same time, plants selected from these crop and weed species were planted in pots containing a growing medium comprising spaghnum peat moss, vermiculite, wetting agent and starter nutrients and treated with postemergence applications of some of the test chemicals formulated in the same manner. Plants ranged in height from 2 to 18 cm for postemergence treatments (1- to 4-leaf stage).
(§2) Treated plants and controls were maintained in a greenhouse for 14 to 21 days, after which time all species were compared to controls and visually evaluated. Plant response ratings, summarized in Table E, are based on a scale of 0 to 100 where 0 is no effect and 100 is complete control. A dash (-) response means no test result.

[2] = test system: pigweed, palmer (palmer pigweed, Amaranthus palmeri); assay: Test E pre-/postemergence: pigweed, palmer; settings: scale 0 to 100
Text: as §1, §2

[3] = test system: crabgrass, large (large crabgrass, Digitaria sanguinalis); assay: Test E pre-/postemergence: crabgrass, large; settings: Preemergence, scale 0 to 100
How it was run: (§3)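 Preemergence: seeds sown in silt loam soil and sprayed with compound in non-phytotoxic solvent containing surfactant. Postemergence: plants grown in peat/vermiculite medium, treated at 2–18 cm (1- to 4-leaf stage). Greenhouse 14–21 days; visual rating vs untreated controls, 0 (no effect) to 100 (complete control).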

[4] = test system: foxtail, giant (giant foxtail, Setaria faberii); assay: Test E pre-/postemergence: foxtail, giant; settings: Preemergence, scale 0 to 100
Text: as §1, §2

[5] = test system: ryegrass, Italian (Italian ryegrass, Lolium multiflorum); assay: Test E pre-/postemergence: ryegrass, Italian; settings: scale 0 to 100
How it was run: as §3

[6] = test system: field bindweed (Convolvulus arvensis); assay: Test E pre-/postemergence: field bindweed; settings: scale 0 to 100
How it was run: as §3

[7] = test system: cocklebur (common cocklebur, Xanthium strumarium); assay: Test E pre-/postemergence: cocklebur; settings: Preemergence, scale 0 to 100
How it was run: as §3

[8] = test system: nutsedge, yellow (yellow nutsedge, Cyperus esculentus); assay: Test E pre-/postemergence: nutsedge, yellow; settings: Preemergence, scale 0 to 100
How it was run: as §3

[9] = test system: beggarticks (hairy beggarticks, Bidens pilosa); assay: Test E pre-/postemergence: beggarticks; settings: scale 0 to 100
How it was run: as §3

[10] = test system: pigweed (Amaranthus retroflexus); assay: Test F postemergence: pigweed; settings: scale 0 to 100
Text: Seeds of plant species selected from corn (Zea mays), soybean (Glycine max), velvetleaf (Abutilon theophrasti), lambsquarters (Chenopodium album), poinsettia, wild (wild poinsettia, Euphorbia heterophylla), pigweed, palmer (palmer pigweed, Amaranthus palmeri), waterhemp (common waterhemp, Amaranthus rudis), surinam grass (Brachiaria decumbens), crabgrass, Brazil (Brazilian crabgrass, Digitaria horizontalis), panicum, fall (fall panicum Panicum dichotomiflorum), crabgrass, large (large crabgrass, Digitaria sanguinalis), foxtail, giant (giant foxtail, Setaria faberii), foxtail, green (green foxtail Setaria viridis), goosegrass (Eleusine indica), ragweed (common ragweed, Ambrosia elatior), barnyardgrass (Echinochloa crus-galli), sandbur (southern sandbur, Cenchrus echinatus), arrowleaf sida (Sida rhombifolia), ryegrass, Italian (Italian ryegrass, Lolium multiflorum), dayflower, VA (Virginia (VA) dayflower, Commelina virginica), field bindweed (Convolvulus arvensis), cocklebur (common cocklebur, Xanthium strumarium), morningglory (Ipomoea coccinea), nightshade (eastern black nightshade, Solanum ptycanthum), kochia (Kochia scoparia), nutsedge, yellow (yellow nutsedge, Cyperus esculentus), johnsongrass (Sorghum halepense), smartweed (ladysthumb smartweed, Polygonum persicaria), and beggarticks (hairy beggarticks, Bidens pilosa), were planted into a silt loam soil and treated preemergence with test chemicals formulated in a non-phytotoxic solvent mixture which included a surfactant. At the same time, plants selected from these crop and weed species and also pigweed (Amaranthus retroflexus), waterhemp_RES1 (ALS/Triazine resistant common waterhemp, Amaranthus rudis) and waterhemp_RES2 (ALS/HPPD resistant common waterhemp, Amaranthus rudis) were planted in pots containing a planting medium comprising spaghnum peat moss, vermiculite, wetting agent and starter nutrients treated with postemergence applications of some of the test chemicals formulated in the same manner. Plants ranged in height from 2 to 18 cm for postemergence treatments (1- to 4-leaf stage).
as §2

Waterhemp = assay: Test C preemergence: waterhemp; settings: scale 0 (no effect) to 100 (complete control)

Compound: Cc1nn(-c2ccc(C(F)(F)F)cc2)nc1Oc1ccnc(C(F)(F)F)c1 [Compound 120]
- Plant response rating: Poinsettia, Wild ([1]; Postemergence, 8 g ai/ha): 25
- Plant response rating: Poinsettia, Wild ([1]; Postemergence, 16 g ai/ha): 35
- Plant response rating: Poinsettia, Wild ([1]; Postemergence, 31 g ai/ha): 13
- Plant response rating: Poinsettia, Wild ([1]; Postemergence, 62 g ai/ha): 60
- Plant response rating: Poinsettia, Wild ([1]; Postemergence, 125 g ai/ha): 90
- Plant response rating: Poinsettia, Wild ([1]; Preemergence, 16 g ai/ha): 0
- Plant response rating: Poinsettia, Wild ([1]; Preemergence, 31 g ai/ha): 0
- Plant response rating: Poinsettia, Wild ([1]; Preemergence, 62 g ai/ha): 0
- Plant response rating: Poinsettia, Wild ([1]; Preemergence, 125 g ai/ha): 35
- Plant response rating: Poinsettia, Wild ([1]; Preemergence, 250 g ai/ha): 50
- Plant response rating: Pigweed, Palmer ([2]; Postemergence, 8 g ai/ha): 90
- Plant response rating: Pigweed, Palmer ([2]; Postemergence, 16 g ai/ha): 90
- Plant response rating: Pigweed, Palmer ([2]; Postemergence, 31 g ai/ha): 90
- Plant response rating: Pigweed, Palmer ([2]; Postemergence, 62 g ai/ha): 95
- Plant response rating: Pigweed, Palmer ([2]; Postemergence, 125 g ai/ha): 100
- Plant response rating: Pigweed, Palmer ([2]; Preemergence, 16 g ai/ha): 65
- Plant response rating: Pigweed, Palmer ([2]; Preemergence, 31 g ai/ha): 100
- Plant response rating: Pigweed, Palmer ([2]; Preemergence, 62 g ai/ha): 100
- Plant response rating: Pigweed, Palmer ([2]; Preemergence, 125 g ai/ha): 100
- Plant response rating: Pigweed, Palmer ([2]; Preemergence, 250 g ai/ha): 100
- Plant response rating: Crabgrass, Large ([3]; 16 g ai/ha): 75
- Plant response rating: Crabgrass, Large ([3]; 31 g ai/ha): 95
- Plant response rating: Crabgrass, Large ([3]; 62 g ai/ha): 98
- Plant response rating: Crabgrass, Large ([3]; 125 g ai/ha): 100
- Plant response rating: Crabgrass, Large ([3]; 250 g ai/ha): 100
- Plant response rating: Foxtail, Giant ([4]; 16 g ai/ha): 85
- Plant response rating: Foxtail, Giant ([4]; 31 g ai/ha): 100
- Plant response rating: Foxtail, Giant ([4]; 62 g ai/ha): 100
- Plant response rating: Foxtail, Giant ([4]; 125 g ai/ha): 100
- Plant response rating: Foxtail, Giant ([4]; 250 g ai/ha): 100
- Plant response rating: Ryegrass, Italian ([5]; Postemergence, 8 g ai/ha): 0
- Plant response rating: Ryegrass, Italian ([5]; Postemergence, 16 g ai/ha): 10
- Plant response rating: Ryegrass, Italian ([5]; Postemergence, 31 g ai/ha): 15
- Plant response rating: Ryegrass, Italian ([5]; Postemergence, 62 g ai/ha): 20
- Plant response rating: Ryegrass, Italian ([5]; Postemergence, 125 g ai/ha): 35
- Plant response rating: Ryegrass, Italian ([5]; Preemergence, 16 g ai/ha): 0
- Plant response rating: Ryegrass, Italian ([5]; Preemergence, 31 g ai/ha): 35
- Plant response rating: Ryegrass, Italian ([5]; Preemergence, 62 g ai/ha): 35
- Plant response rating: Ryegrass, Italian ([5]; Preemergence, 125 g ai/ha): 90
- Plant response rating: Ryegrass, Italian ([5]; Preemergence, 250 g ai/ha): 98
- Plant response rating: Field Bindweed ([6]; Postemergence, 16 g ai/ha): 20
- Plant response rating: Field Bindweed ([6]; Postemergence, 31 g ai/ha): 30
- Plant response rating: Field Bindweed ([6]; Postemergence, 62 g ai/ha): 35
- Plant response rating: Field Bindweed ([6]; Postemergence, 125 g ai/ha): 35
- Plant response rating: Field Bindweed ([6]; Preemergence, 16 g ai/ha): 0
- Plant response rating: Field Bindweed ([6]; Preemergence, 31 g ai/ha): 10
- Plant response rating: Field Bindweed ([6]; Preemergence, 62 g ai/ha): 20
- Plant response rating: Field Bindweed ([6]; Preemergence, 125 g ai/ha): 40
- Plant response rating: Field Bindweed ([6]; Preemergence, 250 g ai/ha): 98
- Plant response rating: Cocklebur ([7]; 16 g ai/ha): 0
- Plant response rating: Cocklebur ([7]; 31 g ai/ha): 0
- Plant response rating: Cocklebur ([7]; 62 g ai/ha): 90
- Plant response rating: Cocklebur ([7]; 125 g ai/ha): 90
- Plant response rating: Nutsedge, Yellow ([8]; 16 g ai/ha): 0
- Plant response rating: Nutsedge, Yellow ([8]; 31 g ai/ha): 0
- Plant response rating: Nutsedge, Yellow ([8]; 62 g ai/ha): 0
- Plant response rating: Nutsedge, Yellow ([8]; 125 g ai/ha): 15
- Plant response rating: Nutsedge, Yellow ([8]; 250 g ai/ha): 25
- Plant response rating: Beggarticks ([9]; Postemergence, 8 g ai/ha): 10
- Plant response rating: Beggarticks ([9]; Postemergence, 16 g ai/ha): 10
- Plant response rating: Beggarticks ([9]; Postemergence, 31 g ai/ha): 20
- Plant response rating: Beggarticks ([9]; Postemergence, 62 g ai/ha): 30
- Plant response rating: Beggarticks ([9]; Postemergence, 125 g ai/ha): 35
- Plant response rating: Beggarticks ([9]; Preemergence, 16 g ai/ha): 0
- Plant response rating: Beggarticks ([9]; Preemergence, 31 g ai/ha): 0
- Plant response rating: Beggarticks ([9]; Preemergence, 125 g ai/ha): 80

Compound: Cc1nn(-c2ccnc(Cl)c2)nc1Cc1ccnc(C(F)(F)F)c1 [Compound 141]
- Plant response rating, Pigweed ([10]; 8 g ai/ha): 90
- Plant response rating, Pigweed ([10]; 16 g ai/ha): 95
- Plant response rating, Pigweed ([10]; 31 g ai/ha): 95
- Plant response rating, Pigweed ([10]; 62 g ai/ha): 95
- Plant response rating, Pigweed ([10]; 125 g ai/ha): 95

Compound: FCc1nn(-c2ccc(F)cc2)nc1Oc1ccnc(C(F)(F)F)c1 [Compound 160]
- Plant response rating, Waterhemp (Waterhemp; 16 g ai/ha): 100

Compound: CCOc1nn(-c2ccc(Cl)cc2)nc1Cc1ccnc(C(F)(F)F)c1 [Compound 188]
- Plant response rating, Waterhemp (Waterhemp; 31 g ai/ha): 100

Compound: CCOc1nn(-c2ccc(F)cc2)nc1Cc1ccnc(C(F)(F)F)c1 [Compound 196, 4-[[5-ethoxy-2-(4-fluorophenyl)-2H-1,2,3-triazol-4-yl]methyl]-2-(trifluoromethyl)pyridine]
- Plant response rating, Pigweed ([10]; 8 g ai/ha): 85
- Plant response rating, Pigweed ([10]; 16 g ai/ha): 95
- Plant response rating, Pigweed ([10]; 31 g ai/ha): 95
- Plant response rating, Pigweed ([10]; 62 g ai/ha): 95
- Plant response rating, Pigweed ([10]; 125 g ai/ha): 95
